This passage reports IC50 results from patent US12649751B2 (Arcus Biosciences, Inc., priority 2022, dated 2026).

The target of the first assay is HPK1 (Homo sapiens, UniProt Q92918). In words: HPK1 Biochemical Assay (ADP-Glo luminescence; low ATP 10 μM or high ATP 200 μM). The conditions noted are these: 2 nM HPK1, 10 μM ATP; read-out: Biochemical Potency (low ATP). A general note: ADP-Glo turns the ADP formed in a reaction into a luminescent signal.
HPK1, sequence (Q92918 whole entry, species assumed): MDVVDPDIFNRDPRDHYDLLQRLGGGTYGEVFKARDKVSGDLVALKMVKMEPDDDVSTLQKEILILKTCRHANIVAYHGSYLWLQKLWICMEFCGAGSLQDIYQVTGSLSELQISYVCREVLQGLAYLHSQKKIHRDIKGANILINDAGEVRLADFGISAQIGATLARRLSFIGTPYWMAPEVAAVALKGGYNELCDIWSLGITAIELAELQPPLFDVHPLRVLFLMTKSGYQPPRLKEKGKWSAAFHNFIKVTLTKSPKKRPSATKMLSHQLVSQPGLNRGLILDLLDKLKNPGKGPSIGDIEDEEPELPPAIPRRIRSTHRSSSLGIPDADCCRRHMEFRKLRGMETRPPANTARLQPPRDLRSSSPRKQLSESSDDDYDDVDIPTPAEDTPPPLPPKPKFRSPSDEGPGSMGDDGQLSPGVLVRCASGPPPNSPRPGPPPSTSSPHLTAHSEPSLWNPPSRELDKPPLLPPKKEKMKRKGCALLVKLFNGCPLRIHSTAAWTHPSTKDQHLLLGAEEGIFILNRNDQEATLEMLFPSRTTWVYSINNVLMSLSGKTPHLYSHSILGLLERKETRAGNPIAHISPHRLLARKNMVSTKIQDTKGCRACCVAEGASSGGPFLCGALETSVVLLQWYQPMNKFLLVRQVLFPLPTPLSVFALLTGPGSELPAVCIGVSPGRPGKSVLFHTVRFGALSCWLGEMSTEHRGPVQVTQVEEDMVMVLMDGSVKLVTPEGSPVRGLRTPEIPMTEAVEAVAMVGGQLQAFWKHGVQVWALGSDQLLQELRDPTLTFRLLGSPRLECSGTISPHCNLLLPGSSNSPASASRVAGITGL
Consider `Cc1cccnc1-c1nc2cc(Nc3ccc(C)c(N4C[C@H](O)C[C@H]4CO)n3)ncc2s1` [Example 77, (3R,5S)-5-(Hydroxymethyl)-1-(3-methyl-6-{[2-(3-methylpyridin-2-yl)-[1,3]thiazolo[5,4-c]pyridin-6-yl]amino}pyridin-2-yl)pyrrolidin-3-ol], for which the IC50 is under 100 nM.
Regarding `Cc1ccc(Nc2cc3nc(-c4cnccn4)sc3cn2)nc1CN1CCCC1` [Example 56, 5-Methyl-N-[2-(pyrazin-2-yl)-[1,3]thiazolo[5,4-c]pyridin-6-yl]-6-[(pyrrolidin-1-yl)methyl]pyridin-2-amine], the IC50 fell in the range of 100 to 1000 nM.
On to `CNS(=O)(=O)c1cccc(-c2nc3cc(Nc4cccc(N5C[C@@H]6C[C@H]5CN6)n4)ncc3s2)c1` [Example 292, 3-[6-({6-[(1S,4S)-2,5-diazabicyclo[2.2.1]heptan-2-yl]pyridin-2-yl}amino)-[1,3]thiazolo[5,4-c]pyridin-2-yl]-N-methylbenzene-1-sulfonamide], for which the IC50 is under 100 nM.
Take `Cc1cccnc1-c1nc2cc(Nc3cccc(N4C[C@H]5C[C@@H]4CN5C)n3)ncc2s1` [Example 91, 6-[(1R,4R)-5-Methyl-2,5-diazabicyclo[2.2.1]heptan-2-yl]-N-[2-(3-methylpyridin-2-yl)-[1,3]thiazolo[5,4-c]pyridin-6-yl]pyridin-2-amine]: the IC50 was under 100 nM.
As to `Cc1cccnc1-c1nc2cc(Nc3ccc(F)c(CN4CCCC4)n3)ncc2s1` [Example 61, 5-Fluoro-N-[2-(3-methylpyridin-2-yl)-[1,3]thiazolo[5,4-c]pyridin-6-yl]-6-[(pyrrolidin-1-yl)methyl]pyridin-2-amine], the IC50 was under 100 nM.
Same read-out and setting: the figure for `CN1C[C@@H]2C[C@H]1CN2c1nccc(Nc2cc3nc(-c4ccnc(C(C)(C)O)c4)sc3cn2)n1` [Example 121, 2-{4-[6-({2-[(1S,4S)-5-Methyl-2,5-diazabicyclo[2.2.1]heptan-2-yl]pyrimidin-4-yl}amino)-[1,3]thiazolo[5,4-c]pyridin-2-yl]pyridin-2-yl}propan-2-ol] is under 100 nM; for `Cc1cccnc1-c1nc2cc(Nc3ccc(C(C)C)c(CN4CCCC4)n3)ncc2s1` [Example 226, N-[2-(3-Methylpyridin-2-yl)-[1,3]thiazolo[5,4-c]pyridin-6-yl]-5-(propan-2-yl)-6-[(pyrrolidin-1-yl)methyl]pyridin-2-amine] it is under 100 nM; for `Cc1ccc(Nc2cc3nc(-c4ncccc4C)sc3cn2)nc1CN1CCC[C@@H]1C` [Example 45, 5-Methyl-N-[2-(3-methylpyridin-2-yl)-[1,3]thiazolo[5,4-c]pyridin-6-yl]-6-{[(2S)-2-methylpyrrolidin-1-yl]methyl}pyridin-2-amine] it is under 100 nM.
Turning to `Cc1cc(Nc2cc3nc(-c4ccc(S(C)(=O)=O)cc4)sc3cn2)nc(O[C@H]2CCNC2)c1` [Example 186, N-[2-(4-Methanesulfonylphenyl)-[1,3]thiazolo[5,4-c]pyridin-6-yl]-4-methyl-6-[(3S)-pyrrolidin-3-yloxy]pyridin-2-amine], the IC50 is under 100 nM.
In the case of `Cc1cccnc1-c1nc2cc(Nc3ccc(C)c(N4C[C@@H](N)C[C@@H]4CO)n3)ncc2s1` [Example 68, [(4S)-4-Amino-1-(3-methyl-6-{[2-(3-methylpyridin-2-yl)-[1,3]thiazolo[5,4-c]pyridin-6-yl]amino}pyridin-2-yl)pyrrolidin-2-yl]methanol], the IC50 was under 100 nM.
As to `Cc1cc(Nc2cc3nc(-c4cc5n(n4)CC(=O)N(C(C)C)CC5)sc3cn2)nc(O[C@H]2CCNC2)c1` [Example 185, 2-(6-{[4-Methyl-6-((3S)-pyrrolidin-3-yloxy)pyridin-2-yl]amino}-[1,3]thiazolo[5,4-c]pyridin-2-yl)-6-(propan-2-yl)-4H,5H,6H,7H,8H-pyrazolo[1,5-d][1,4]diazepin-7-one], the IC50 lay within 100 to 1000 nM.
For `C[C@H]1CCCN1c1nc2cc(Nc3ccc(C4CCOCC4)c(CN4CCCC4)n3)ncc2s1` [Example 230, N-{2-[(2S)-2-Methylpyrrolidin-1-yl]-[1,3]thiazolo[5,4-c]pyridin-6-yl}-5-(oxan-4-yl)-6-[(pyrrolidin-1-yl)methyl]pyridin-2-amine], the IC50 is under 100 nM.
In the case of `Cc1cc(Nc2cc3nc(-c4ccnc(N)c4)sc3cn2)nc(O[C@H]2CCNC2)c1` [Example 170, N-[2-(2-Aminopyridin-4-yl)-[1,3]thiazolo[5,4-c]pyridin-6-yl]-4-methyl-6-[(3S)-pyrrolidin-3-yloxy]pyridin-2-amine], the IC50 was under 100 nM.
On to `Cc1ccc(Nc2cc3nc(-c4cnn(C(F)(F)F)c4)sc3cn2)nc1CN1CCCC1` [Example 36, 5-Methyl-6-[(pyrrolidin-1-yl)methyl]-N-{2-[1-(trifluoromethyl)-1H-pyrazol-4-yl]-[1,3]thiazolo[5,4-c]pyridin-6-yl}pyridin-2-amine], for which the IC50 was in the range of 100 to 1000 nM.
As for `Cc1cccnc1-c1nc2cc(Nc3cccc(N4CCN(C)C[C@@H]4C)n3)ncc2s1` [Example 95, 6-[(2S)-2,4-Dimethylpiperazin-1-yl]-N-[2-(3-methylpyridin-2-yl)-[1,3]thiazolo[5,4-c]pyridin-6-yl]pyridin-2-amine], the IC50 fell in the range of 1000 to 5000 nM.
`Cc1cc(C)n(-c2nc3cc(Nc4ccc(N5CCOCC5)c(CN5CCCC5)n4)ncc3s2)n1` [Example 196, N-[2-(3,5-Dimethyl-1H-pyrazol-1-yl)-[1,3]thiazolo[5,4-c]pyridin-6-yl]-5-(morpholin-4-yl)-6-[(pyrrolidin-1-yl)methyl]pyridin-2-amine]: the IC50 is under 100 nM.
`c1cc(C2CCOCC2)c(CN2CCCC2)nc1Nc1cc2nc(N3CCCC3)sc2cn1` [Example 231, 5-(Oxan-4-yl)-N-[2-(pyrrolidin-1-yl)-[1,3]thiazolo[5,4-c]pyridin-6-yl]-6-[(pyrrolidin-1-yl)methyl]pyridin-2-amine]: the IC50 lay in the range of 100 to 1000 nM.
In the case of `CN1C[C@@H]2C[C@H]1CN2c1nccc(Nc2cc3nc(-c4cccc(C(C)(C)O)c4)sc3cn2)n1` [Example 122, 2-{3-[6-({2-[(1S,4S)-5-Methyl-2,5-diazabicyclo[2.2.1]heptan-2-yl]pyrimidin-4-yl}amino)-[1,3]thiazolo[5,4-c]pyridin-2-yl]phenyl}propan-2-ol], the IC50 was under 100 nM.

Still in this assay, the particulars now being: Biochemical Potency (low ATP), 2 nM HPK1, 10 μM ATP.
Consider `Cc1ccc(Nc2cc3nc(-c4ccncc4)sc3cn2)nc1CN1CCCC1` [Example 35, 5-Methyl-N-[2-(pyridin-4-yl)-[1,3]thiazolo[5,4-c]pyridin-6-yl]-6-[(pyrrolidin-1-yl)methyl]pyridin-2-amine], for which the IC50 is under 100 nM.

Staying with this assay, now noted: HPK1 ADP-Glo assay, low ATP (10 μM ATP, 2 nM HPK1); read-out: Biochemical Potency (low ATP).
On to `Cc1cccnc1-c1nc2cc(Nc3ccc4cccc(C(C)(C)N)c4n3)ncc2s1` [Example 306, 6-[8-(1-amino-1-methylethyl)-2-quinolylamino]-2-(3-methyl-2-pyridyl)-3-thia-1,5-diazaindene], for which the IC50 is under 100 nM.
Consider `CN1C[C@@H]2C[C@H]1CN2c1nccc(Nc2cc3nc(N4CCc5ccncc5C4)sc3cn2)n1` [Example 427], for which the IC50 fell in the range of 100 to 1000 nM.
`Cc1cccnc1-c1nc2cc(Nc3ccc4c(n3)[C@@](C)(N)CCC4)ncc2s1` [Example 578]: the IC50 is under 100 nM.
On to `c1cnn(-c2nc3cc(Nc4cc(C5CCOCC5)nc(N5C[C@@H]6C[C@H]5CN6)n4)ncc3s2)c1` [Example 437], for which the IC50 is under 100 nM.
Take `CN1C[C@@H]2C[C@H]1CN2c1nccc(Nc2cc3nc(N4CCc5cnccc5C4)sc3cn2)n1` [Example 426]: the IC50 was 100 to 1000 nM.
As to `CN1C[C@@H]2C[C@H]1CN2c1nccc(Nc2cc3nc(-c4ccnc5c4cnn5C)sc3cn2)n1` [Example 411], the IC50 is under 100 nM.
As to `CS(=O)(=O)Nc1cccc(-c2nc3cc(Nc4cccc(N5C[C@@H]6C[C@H]5CN6)n4)ncc3s2)c1` [Example 326], the IC50 was under 100 nM.
In the case of `Cc1ccnn1-c1nc2cc(Nc3ccc4c(n3)C(C)(N)CCC4)ncc2s1` (centres unmarked) [Example 580], the IC50 is under 100 nM.
With `CN1C[C@@H]2C[C@H]1CN2c1cncc(Nc2cc3nc(-c4ncco4)sc3cn2)n1` [Example 421], the IC50 was under 100 nM.

Another assay relates to p-SLP-76 (Ser376) in Jurkat cells. In words: pSLP76 Cellular Assay (AlphaLISA SureFire Ultra p-SLP-76 (Ser376), anti-CD3 activated Jurkat cells). The assay is classed as cell-based. The conditions noted are these: Homo sapiens; Jurkat cells, anti-CD3 stimulation, pSLP76; read-out: Cellular Potency. Here is the method: pSLP76 cellular assay was performed using Jurkat cells and the AlphaLISA SureFire Ultra p-SLP-76 (Ser376) Assay Kit (PerkinElmer). Dose-response assays were performed in Greiner® Low Volume 384-well assay plates containing 200 nL of 22 serial 2-fold compound dilutions using Bravo and Echo. Jurkat cells were grown in RPMI-1640 supplemented with 10% FBS and PSG. The day prior to the assay, the cells were collected, and serum starved overnight in Opti-MEM. The day of the assay, the cells were collected and resuspended in HBSS. 100,000 cells/well were added to the compound plates and after a short spin, the plates were incubated at 37° C. for 1 h. The cells were activated by adding 10 μL of 0.025 mg/ml anti-CD3. Plates were then incubated at 37° C. for 45 min. Stimulation was terminated by adding […], followed by a brief centrifugation and 60 min of shaking at 300 rpm. Cell lysates (10 μL) were transferred to 384-well White Opti-plates and the samples were processed according to the manufacturer's directions. The fluorescence signal from pSLP76 was measured at 570 nm using Envision plate reader. IC50 values were determined by fitting the data to a standard 4-parameter logistic equation. The results are summarized in the Cellular Potency columns in Tables 4 and 5 below (Cellular Potency).
A general note: Alpha assays give light when donor and acceptor beads are brought close together.
With `CN1C[C@@H]2C[C@H]1CN2c1cccc(Nc2cc3nc(-c4cccc(S(C)(=O)=O)c4)sc3cn2)n1` [Example 136, N-[2-(3-Methanesulfonylphenyl)-[1,3]thiazolo[5,4-c]pyridin-6-yl]-6-[(1S,4S)-5-methyl-2,5-diazabicyclo[2.2.1]heptan-2-yl]pyridin-2-amine], the IC50 was 100 to 1000 nM.
Turning to `Cc1ccc(Nc2cc3nc(-c4ncccc4C)sc3cn2)nc1OC[C@H](N)C(C)(C)C` [Example 180, 6-[(2R)-2-Amino-3,3-dimethylbutoxy]-5-methyl-N-[2-(3-methylpyridin-2-yl)-[1,3]thiazolo[5,4-c]pyridin-6-yl]pyridin-2-amine], the IC50 was over 5000 nM.

The same assay, now with this note: Homo sapiens; pSLP76 (Ser376) AlphaLISA, anti-CD3 activated Jurkat cells; read-out: Cellular Potency.
In the case of `Cc1cc(Nc2cc3nc(-c4cccc(C(=O)N(C)C5CCCOC5)c4)sc3cn2)nc(N2C[C@@H]3C[C@H]2CN3CCO)n1` (some centres unmarked) [Example 542], the IC50 is under 100 nM.
Consider `Cc1cc(Nc2cc3nc(-c4cccc(C(=O)N(C)CC5CCOC5)c4)sc3cn2)nc(N2C[C@@H]3C[C@H]2CN3CCO)n1` (some centres unmarked) [Example 557], for which the IC50 was in the range of 100 to 1000 nM.
